Source: patent publication US20230278972A1, “SUBSTITUTED HALOALKYL SULFONANILIDE HERBICIDES” (FMC Corporation, priority 2020, published 2023)

Key:
Assay type in all cases: in vivo
[1] = tested on: kochia (Bassia scoparia); assay: Test A preemergence, kochia; conditions: Preemergence; for Kochia plant response rating: 125 g ai/ha, visual injury on 0 to 100 scale (0 no effect, 100 complete control), approximately 10 days; for Plant response rating, Kochia: 0 to 100 scale (0 no effect, 100 complete control)
Method in brief: (§1)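 Compounds in non-phytotoxic solvent with surfactant. Soil: loam/sand. Preemergence via directed soil spray after seeding; postemergence on seedlings 2–10 cm, one- to two-leaf.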

[2] = tested on: corn (Zea mays); assay: Test A postemergence, corn; conditions: Postemergence; for Corn plant response rating: 500 g ai/ha, visual injury vs untreated controls after approx. 10 days
Method in brief: as §1

[3] = tested on: pigweed (Amaranthus retroflexus); assay: Test A preemergence, pigweed; conditions: for Pigweed plant response rating: 125 g ai/ha, visual injury on 0 to 100 scale (0 no effect, 100 complete control), approximately 10 days; for Plant response rating, Pigweed: 0 to 100 scale (0 no effect, 100 complete control)
Method in brief: as §1

[4] = tested on: Ryegrass, Italian (Italian ryegrass, Lolium multiflorum); assay: Test A preemergence, Ryegrass, Italian; conditions: Preemergence; for Ryegrass, Italian plant response rating: 125 g ai/ha, visual injury on 0 to 100 scale (0 no effect, 100 complete control), approximately 10 days; for Plant response rating, Ryegrass, Italian: 0 to 100 scale (0 no effect, 100 complete control)
Method in brief: as §1

[5] = tested on: Ryegrass, Italian (Italian ryegrass, Lolium multiflorum); assay: Test A postemergence, Ryegrass, Italian; conditions: Postemergence; for Ryegrass, Italian plant response rating: 500 g ai/ha, visual injury vs untreated controls after approx. 10 days
Method in brief: as §1

[6] = tested on: galium (catchweed bedstraw, Galium aparine); assay: Test A postemergence, galium; conditions: Postemergence; for Galium plant response rating: 500 g ai/ha, visual injury vs untreated controls after approx. 10 days
Method in brief: as §1

[7] = tested on: kochia (Bassia scoparia); assay: Test A postemergence, kochia; conditions: Postemergence; for Kochia plant response rating: 500 g ai/ha, visual injury vs untreated controls after approx. 10 days
Method in brief: as §1

[8] = tested on: ragweed (common ragweed, Ambrosia artemisiifolia); assay: Test A preemergence, ragweed; conditions: Preemergence; for Ragweed plant response rating: 125 g ai/ha, visual injury on 0 to 100 scale (0 no effect, 100 complete control), approximately 10 days; for Plant response rating, Ragweed: 0 to 100 scale (0 no effect, 100 complete control)
Method in brief: as §1

[9] = tested on: blackgrass (Alopecurus myosuroides); assay: Test A postemergence, blackgrass; conditions: Postemergence; for Blackgrass plant response rating: 500 g ai/ha, visual injury vs untreated controls after approx. 10 days
Method in brief: as §1

[10] = tested on: wheat (Triticum aestivum); assay: Test A postemergence, wheat; conditions: Postemergence; for Wheat plant response rating: 500 g ai/ha, visual injury vs untreated controls after approx. 10 days
Method in brief: as §1

[11] = tested on: barnyardgrass (Echinochloa crus-galli); assay: Test A postemergence, barnyardgrass; conditions: Postemergence; for Barnyardgrass plant response rating: 500 g ai/ha, visual injury vs untreated controls after approx. 10 days
Method in brief: as §1

[12] = tested on: pigweed (Amaranthus retroflexus); assay: Test A postemergence, pigweed; conditions: Postemergence; for Pigweed plant response rating: 500 g ai/ha, visual injury vs untreated controls after approx. 10 days
Method in brief: as §1

[13] = tested on: Foxtail, Giant (giant foxtail, Setaria faberi); assay: Test A postemergence, Foxtail, Giant; conditions: Postemergence; for Foxtail, Giant plant response rating: 500 g ai/ha, visual injury vs untreated controls after approx. 10 days
Method in brief: as §1

[14] = tested on: barnyardgrass (Echinochloa crus-galli); assay: Test A preemergence, barnyardgrass; conditions: Preemergence; for Barnyardgrass plant response rating: 125 g ai/ha, visual injury on 0 to 100 scale (0 no effect, 100 complete control), approximately 10 days; for Plant response rating, Barnyardgrass: 0 to 100 scale (0 no effect, 100 complete control)
Method in brief: as §1

[15] = tested on: Foxtail, Giant (giant foxtail, Setaria faberi); assay: Test A preemergence, Foxtail, Giant; conditions: Preemergence; for Foxtail, Giant plant response rating: 125 g ai/ha, visual injury on 0 to 100 scale (0 no effect, 100 complete control), approximately 10 days; for Plant response rating, Foxtail, Giant: 0 to 100 scale (0 no effect, 100 complete control)
Method in brief: as §1

[16] = tested on: ragweed (common ragweed, Ambrosia artemisiifolia); assay: Test A postemergence, ragweed; conditions: Postemergence; for Ragweed plant response rating: 500 g ai/ha, visual injury vs untreated controls after approx. 10 days
Method in brief: as §1

[17] = 125 g ai/ha, visual injury approx. 10 days, 0 to 100 scale (0 no effect, 100 complete control)
[18] = 0 to 100 scale (0 no effect, 100 complete control)
[19] = 31 g ai/ha, visual injury, approx. 10 days
[20] = 31 g ai/ha, visual injury on 0 to 100 scale (0 no effect, 100 complete control), approx. 10 days
[21] = 125 g ai/ha, 0 to 100 scale (0 no effect, 100 complete control)

In the case of `CCn1nc(Cl)cc(-c2cc(N(S(C)(=O)=O)S(=O)(=O)C(F)(F)F)c(C)cc2C)c1=O` [Compound 45], the “Kochia plant response rating” value [1] is reported as 70, the “Plant response rating, Kochia” value ([1]; 500 g ai/ha) is reported as 100 and the “Plant response rating, Corn” value [2, 17] is reported as 10. For the same molecule, the “Corn plant response rating” value [2, 18] was 30, the “Pigweed plant response rating” value [3] was 60 and the “Plant response rating, Pigweed” value ([3]; 500 g ai/ha) was 90. The “Ryegrass, Italian plant response rating” value [4] was 80, the “Plant response rating, Ryegrass, Italian” value ([4]; 500 g ai/ha) was 100 and the “Plant response rating, Ryegrass, Italian” value [5, 17] was 50. The “Ryegrass, Italian plant response rating” value [5, 18] was 90, the “Plant response rating, Galium” value [6, 17] was 10 and the “Galium plant response rating” value [6, 18] was 40. For the same molecule, the “Plant response rating, Kochia” value [7, 17] was 10, the “Kochia plant response rating” value [7, 18] was 50 and the “Ragweed plant response rating” value [8] was 60. The “Plant response rating, Ragweed” value ([8]; 500 g ai/ha) was 80, the “Plant response rating, Blackgrass” value [9, 17] was 0 and the “Blackgrass plant response rating” value [9, 18] was 60. The “Plant response rating, Wheat” value [10, 17] was 40, the “Wheat plant response rating” value [10, 18] was 70 and the “Plant response rating, Barnyardgrass” value [11, 17] was 20. The “Barnyardgrass plant response rating” value [11, 18] was 70, the “Plant response rating, Pigweed” value [12, 17] was 30 and the “Pigweed plant response rating” value [12, 18] was 70. The “Plant response rating, Foxtail, Giant” value [13, 17] was 0, the “Foxtail, Giant plant response rating” value [13, 18] was 60 and the “Barnyardgrass plant response rating” value [14] was 90. For the same molecule, the “Plant response rating, Barnyardgrass” value ([14]; 500 g ai/ha) was 100, the “Foxtail, Giant plant response rating” value [15] was 100 and the “Plant response rating, Foxtail, Giant” value ([15]; 500 g ai/ha) was 100. For the same molecule, the “Plant response rating, Ragweed” value [16, 17] was 20 and the “Ragweed plant response rating” value [16, 18] was 70.
`Cc1cc(C)c(C(=O)N2CCC(C#N)CC2)cc1NS(=O)(=O)C(F)(F)F` [Compound 162] was tested, and the “Plant response rating, Kochia” value [1, 19] was 30, the “Kochia plant response rating” value [1] was 40 and the “Plant response rating, Corn” value [2, 20] was 20. The “Plant response rating, Corn” value [2, 21] was 20, the “Plant response rating, Pigweed” value [3, 19] was 100 and the “Pigweed plant response rating” value [3] was 100. The “Plant response rating, Ryegrass, Italian” value [4, 19] was 40, the “Ryegrass, Italian plant response rating” value [4] was 70 and the “Plant response rating, Ryegrass, Italian” value [5, 20] was 0. The “Plant response rating, Ryegrass, Italian” value [5, 21] was 30, the “Plant response rating, Galium” value [6, 20] was 80 and the “Plant response rating, Galium” value [6, 21] was 100. The “Plant response rating, Kochia” value [7, 20] was 10, the “Plant response rating, Kochia” value [7, 21] was 10 and the “Plant response rating, Ragweed” value [8, 19] was 0. For the same molecule, the “Ragweed plant response rating” value [8] was 30, the “Plant response rating, Blackgrass” value [9, 20] was 20 and the “Plant response rating, Blackgrass” value [9, 21] was 20. For the same molecule, the “Plant response rating, Wheat” value [10, 20] was 30, the “Plant response rating, Wheat” value [10, 21] was 50 and the “Plant response rating, Barnyardgrass” value [11, 20] was 40. For the same molecule, the “Plant response rating, Barnyardgrass” value [11, 21] was 80, the “Plant response rating, Pigweed” value [12, 20] was 50 and the “Plant response rating, Pigweed” value [12, 21] was 60. The “Plant response rating, Foxtail, Giant” value [13, 20] was 10, the “Plant response rating, Foxtail, Giant” value [13, 21] was 30 and the “Plant response rating, Barnyardgrass” value [14, 19] was 0. The “Barnyardgrass plant response rating” value [14] was 60, the “Plant response rating, Foxtail, Giant” value [15, 19] was 100 and the “Foxtail, Giant plant response rating” value [15] was 90. The “Plant response rating, Ragweed” value [16, 20] was 60 and the “Plant response rating, Ragweed” value [16, 21] was 60.
With `Cc1cc(C(F)(F)F)c(NS(=O)(=O)C(F)(F)F)cc1C(=O)N(C)C` [Compound 132] the “Kochia plant response rating” value [1] was 0, the “Plant response rating, Kochia” value ([1]; 500 g ai/ha) was 70 and the “Plant response rating, Corn” value [2, 17] was 0. The “Corn plant response rating” value [2, 18] was 20, the “Pigweed plant response rating” value [3] was 100 and the “Plant response rating, Pigweed” value ([3]; 500 g ai/ha) was 100. For the same molecule, the “Ryegrass, Italian plant response rating” value [4] was 80, the “Plant response rating, Ryegrass, Italian” value ([4]; 500 g ai/ha) was 100 and the “Plant response rating, Ryegrass, Italian” value [5, 21] was 0. The “Ryegrass, Italian plant response rating” value [5, 18] was 40, the “Plant response rating, Galium” value [6, 17] was 70 and the “Galium plant response rating” value [6, 18] was 90. For the same molecule, the “Plant response rating, Kochia” value [7, 17] was 20, the “Kochia plant response rating” value [7, 18] was 20 and the “Ragweed plant response rating” value [8] was 80. For the same molecule, the “Plant response rating, Ragweed” value ([8]; 500 g ai/ha) was 90, the “Plant response rating, Blackgrass” value [9, 17] was 0 and the “Blackgrass plant response rating” value [9, 18] was 0. The “Plant response rating, Wheat” value [10, 21] was 40, the “Wheat plant response rating” value [10, 18] was 0 and the “Plant response rating, Barnyardgrass” value [11, 17] was 0. The “Barnyardgrass plant response rating” value [11, 18] was 40, the “Plant response rating, Pigweed” value [12, 21] was 70 and the “Pigweed plant response rating” value [12, 18] was 90. The “Plant response rating, Foxtail, Giant” value [13, 17] was 20, the “Foxtail, Giant plant response rating” value [13, 18] was 40 and the “Barnyardgrass plant response rating” value [14] was 60. The “Plant response rating, Barnyardgrass” value ([14]; 500 g ai/ha) was 100, the “Foxtail, Giant plant response rating” value [15] was 30 and the “Plant response rating, Foxtail, Giant” value ([15]; 500 g ai/ha) was 90. For the same molecule, the “Plant response rating, Ragweed” value [16, 21] was 60 and the “Ragweed plant response rating” value [16, 18] was 90.
With `CCn1nccc(-c2cc(NS(=O)(=O)C(F)(F)F)c(C)cc2C)c1=O` [Compound 79] the “Kochia plant response rating” value [1] was 70, the “Plant response rating, Kochia” value ([1]; 500 g ai/ha) was 90 and the “Plant response rating, Corn” value [2, 17] was 10. For the same molecule, the “Corn plant response rating” value [2, 18] was 70, the “Pigweed plant response rating” value [3] was 90 and the “Plant response rating, Pigweed” value ([3]; 500 g ai/ha) was 100. For the same molecule, the “Ryegrass, Italian plant response rating” value [4] was 90, the “Plant response rating, Ryegrass, Italian” value ([4]; 500 g ai/ha) was 100 and the “Plant response rating, Ryegrass, Italian” value [5, 17] was 40. For the same molecule, the “Ryegrass, Italian plant response rating” value [5, 18] was 80, the “Plant response rating, Galium” value [6, 17] was 90 and the “Galium plant response rating” value [6, 18] was 90. The “Plant response rating, Kochia” value [7, 17] was 40, the “Kochia plant response rating” value [7, 18] was 70 and the “Ragweed plant response rating” value [8] was 80. The “Plant response rating, Ragweed” value ([8]; 500 g ai/ha) was 90, the “Plant response rating, Blackgrass” value [9, 17] was 30 and the “Blackgrass plant response rating” value [9, 18] was 30. The “Plant response rating, Wheat” value [10, 17] was 70, the “Wheat plant response rating” value [10, 18] was 80 and the “Plant response rating, Barnyardgrass” value [11, 17] was 80. The “Barnyardgrass plant response rating” value [11, 18] was 90, the “Plant response rating, Pigweed” value [12, 17] was 30 and the “Pigweed plant response rating” value [12, 18] was 80. For the same molecule, the “Plant response rating, Foxtail, Giant” value [13, 17] was 90, the “Foxtail, Giant plant response rating” value [13, 18] was 90 and the “Barnyardgrass plant response rating” value [14] was 100. For the same molecule, the “Plant response rating, Barnyardgrass” value ([14]; 500 g ai/ha) was 100, the “Foxtail, Giant plant response rating” value [15] was 100 and the “Plant response rating, Foxtail, Giant” value ([15]; 500 g ai/ha) was 100. For the same molecule, the “Plant response rating, Ragweed” value [16, 17] was 30 and the “Ragweed plant response rating” value [16, 18] was 80.
